Measured values from patent US10160747B2, “Compounds and methods for kinase modulation, and indications therefor” (Plexxikon Inc., priority 2016, dated 2018).
One block for each compound: values may come before it.

Experiments:
[1] = tested on: MOLM-14 D835Y (endogenous FLT3 ITD and transfected FLT3 D835Y); experiment: MOLM-14 D835Y cell proliferation assay (CellTiter-Glo); assay type: cell-based; details: Homo sapiens, MOLM-14, 72 h; 3 d growth, GMean
Procedure, shortened: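 MOLM-14 cells (FLT3 ITD) carrying D835Y or F691L, 1×10^4 cells/well, eight 1:3 dilutions from 1 μM final, 0.2% DMSO, 3 days at 37 °C, 5% CO2. Viability by CellTiter-Glo luminescence (ATP content); IC50 from concentration-response.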

[2] = target: T1, FLT3-D835Y (Homo sapiens, UniProt P36888, D835Y); experiment: FLT3-D835Y recombinant enzyme kinase assay (AlphaScreen); assay type: biochemical; details: 8 pt, GMean
T1 construct: purchased Invitrogen PV3967
T1 sequence (P36888 27-993 D835Y): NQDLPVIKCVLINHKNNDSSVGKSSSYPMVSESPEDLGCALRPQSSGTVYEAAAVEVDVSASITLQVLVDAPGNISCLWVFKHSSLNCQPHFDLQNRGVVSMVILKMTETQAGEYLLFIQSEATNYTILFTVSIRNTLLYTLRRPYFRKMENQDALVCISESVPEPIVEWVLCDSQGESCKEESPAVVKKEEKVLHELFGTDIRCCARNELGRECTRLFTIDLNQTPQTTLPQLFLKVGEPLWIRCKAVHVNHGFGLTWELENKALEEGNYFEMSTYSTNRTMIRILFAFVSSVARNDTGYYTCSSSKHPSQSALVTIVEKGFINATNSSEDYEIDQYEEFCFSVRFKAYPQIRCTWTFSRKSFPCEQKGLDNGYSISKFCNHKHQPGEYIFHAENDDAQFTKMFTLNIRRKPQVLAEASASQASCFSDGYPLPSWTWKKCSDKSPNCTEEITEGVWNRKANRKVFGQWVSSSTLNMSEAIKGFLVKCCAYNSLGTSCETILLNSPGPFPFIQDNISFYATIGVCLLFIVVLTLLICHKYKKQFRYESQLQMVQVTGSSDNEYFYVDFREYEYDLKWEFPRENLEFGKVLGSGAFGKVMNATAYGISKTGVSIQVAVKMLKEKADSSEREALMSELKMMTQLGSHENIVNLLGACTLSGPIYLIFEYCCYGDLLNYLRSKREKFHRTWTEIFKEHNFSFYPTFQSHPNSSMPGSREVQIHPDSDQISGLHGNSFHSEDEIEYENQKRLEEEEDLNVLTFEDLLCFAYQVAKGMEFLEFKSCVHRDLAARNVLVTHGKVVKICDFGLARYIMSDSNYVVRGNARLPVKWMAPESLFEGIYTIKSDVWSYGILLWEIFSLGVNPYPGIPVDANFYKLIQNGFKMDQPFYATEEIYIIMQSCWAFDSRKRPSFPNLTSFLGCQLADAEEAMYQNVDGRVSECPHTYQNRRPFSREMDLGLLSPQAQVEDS
Procedure, shortened: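 IC50 values come from AlphaScreen proximity signal: phosphorylated biotin-poly(Glu4-Tyr) (30 nM) bridges streptavidin donor and anti-phosphotyrosine PY20 acceptor beads. Enzyme reactions ran at 100 μM ATP for c-KIT versus 10 μM for both FLT3 mutants (ITD, D835Y); beads added in stop buffer, room temperature.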

SMILES: O=C(Cc1ccc(-c2cnc(Nc3cnn(C(F)F)c3)nc2)cc1)Nc1cncc(C(F)(F)F)c1 [Compound P-0209, 2-[4-[2-[[1-(difluoromethyl)pyrazol-4-yl]amino]pyrimidin-5-yl]phenyl]-N-[5-(trifluoromethyl)-3-pyridyl]acetamide]
IC50 [1]: 0.0001 to 10 µM
IC50 [2]: 0.0001 to 10 µM

SMILES: Cn1cc(Nc2ncc(-c3cc(F)c(CC(=O)Nc4cc(C(F)(F)F)ccn4)cc3F)cn2)cn1 [Compound P-0019, 2-[2,5-difluoro-4-[2-[(1-methylpyrazol-4-yl)amino]pyrimidin-5-yl]phenyl]-N-[4-(trifluoromethyl)-2-pyridyl]acetamide]
IC50 [1]: 0.0001 to 10 µM
IC50 [2]: 0.0001 to 10 µM

SMILES: Cc1ncc(NC(=O)Cc2ccc(-c3cnc4[nH]c(C#CC(C)(C)O)cc4c3)cc2)cc1C(F)(F)F [Compound P-0220, 2-[4-[2-(3-hydroxy-3-methyl-but-1-ynyl)-1H-pyrrolo[2,3-b]pyridin-5-yl]phenyl]-N-[6-methyl-5-(trifluoromethyl)-3-pyridyl]acetamide]
IC50 [1]: 0.0001 to 10 µM
IC50 [2]: 0.0001 to 10 µM

SMILES: CCn1cc(Nc2ncc(-c3cc(F)c(CC(=O)Nc4cnc(C)c(C(F)(F)F)c4)cc3F)cn2)cn1 [Compound P-0249, 2-[4-[2-[(1-ethylpyrazol-4-yl)amino]pyrimidin-5-yl]-2,5-difluoro-phenyl]-N-[6-methyl-5-(trifluoromethyl)-3-pyridyl]acetamide]
IC50 [1]: 0.0001 to 10 µM
IC50 [2]: 0.0001 to 10 µM

SMILES: CCn1cc(Nc2ncc(-c3ccc(CC(=O)Nc4cnc(C)c(C(F)(F)F)c4)cc3F)cn2)cn1 [Compound P-0248, 2-[4-[2-[(1-ethylpyrazol-4-yl)amino]pyrimidin-5-yl]-3-fluoro-phenyl]-N-[6-methyl-5-(trifluoromethyl)-3-pyridyl]acetamide]
IC50 [1]: 0.0001 to 10 µM
IC50 [2]: 0.0001 to 10 µM

Next, values leading:

IC50 [1]: 0.0001 to 10 µM
IC50 [2]: 0.0001 to 10 µM
SMILES: COc1ncc(NC(=O)Cc2ccc(-c3cnc4[nH]nc(N)c4c3)cc2)cc1C(F)(F)F [Compound P-0216, 2-(4-(3-amino-1H-pyrazolo[3,4-b]pyridin-5-yl)phenyl)-N-(6-methoxy-5-(trifluoromethyl)pyridin-3-yl)acetamide]

IC50 [1]: 0.0001 to 10 µM
IC50 [2]: 0.0001 to 10 µM
SMILES: O=C(Cc1ccc(-c2cnc(Nc3cnn(C4CC4)c3)nc2)cc1)Nc1cc(C(F)(F)F)ccn1 [Compound P-0237, 2-[4-[2-[(1-cyclopropylpyrazol-4-yl)amino]pyrimidin-5-yl]phenyl]-N-[4-(trifluoromethyl)-2-pyridyl]acetamide]

IC50 [1]: 0.0001 to 10 µM
IC50 [2]: 0.0001 to 10 µM
SMILES: COc1ncc(NC(=O)Cc2cc(F)c(-c3cnc(Nc4cnn(C)c4)nc3)cc2F)cc1C(F)(F)F [Compound P-0208, 2-[2,5-difluoro-4-[2-[(1-methylpyrazol-4-yl)amino]pyrimidin-5-yl]phenyl]-N-[6-methoxy-5-(trifluoromethyl)-3-pyridyl]acetamide]

IC50 [1]: 0.0001 to 10 µM
IC50 [2]: 0.0001 to 10 µM
SMILES: O=C(Cc1ccc(-c2cnc(Nc3cnn(C4CC4)c3)nc2)cc1F)Nc1ccc(C(F)(F)F)cn1 [Compound P-0243, 2-[4-[2-[(1-cyclopropylpyrazol-4-yl)amino]pyrimidin-5-yl]-2-fluoro-phenyl]-N-[5-(trifluoromethyl)-2-pyridyl]acetamide]

IC50 [1]: 0.0001 to 10 µM
IC50 [2]: 0.0001 to 10 µM
SMILES: COc1ncc(NC(=O)Cc2ccc(-c3cnc4[nH]c(-c5ccnc(C#N)c5)cc4c3)c(F)c2)cc1C(F)(F)F [Compound P-0016, 2-[4-[2-(2-cyano-4-pyridyl)-1H-pyrrolo[2,3-b]pyridin-5-yl]-3-fluoro-phenyl]-N-[6-methoxy-5-(trifluoromethyl)-3-pyridyl]acetamide]

IC50 [1]: 0.0001 to 10 µM
IC50 [2]: 0.0001 to 10 µM
SMILES: CCOc1n[nH]c2ncc(-c3ccc(CC(=O)Nc4cnc(C)c(C(F)(F)F)c4)cc3)cc12 [Compound P-0217, 2-[4-(3-ethoxy-1H-pyrazolo[3,4-b]pyridin-5-yl)phenyl]-N-[6-methyl-5-(trifluoromethyl)-3-pyridyl]acetamide]
